Experimental data as given in ChEMBL document CHEMBL3885881, “DrugMatrix”.

Species on record: Rattus norvegicus
Experiment: DrugMatrix - Regimen: Daily Repeat
Type: toxicity, organism-based, Sprague-Dawley
Parameters: regimen Daily Repeat, gender Male, age 6-8 weeks
Settings: in vivo, iv, vehicle 100 % SALINE; for ABSOLUTE BASOPHIL / ABSOLUTE EOSINOPHIL / ABSOLUTE LYMPHOCYTE / ABSOLUTE MONOCYTE / ABSOLUTE SEGMENTED NEUTROPHIL / BASOPHIL / EOSINOPHIL / ERYTHROCYTE COUNT / HEMATOCRIT / HEMOGLOBIN / LEUKOCYTE COUNT / LYMPHOCYTE / MEAN CORPUSCULAR HEMOGLOBIN / MEAN CORPUSCULAR HEMOGLOBIN CONCENTRATION / MEAN CORPUSCULAR VOLUME / MONOCYTE / NEUTROPHIL / NUCLEATED RED BLOOD CELLS / PLATELET COUNT: tissue Blood; for ALANINE AMINOTRANSFERASE / ALBUMIN / ALKALINE PHOSPHATASE / ASPARTATE AMINOTRANSFERASE / BLOOD UREA NITROGEN / CARBON DIOXIDE / CHLORIDE / CHOLESTEROL / CREATINE PHOSPHOKINASE / CREATININE / GLUCOSE / LACTATE DEHYDROGENASE / LIPASE / PHOSPHORUS / POTASSIUM / SODIUM / TOTAL BILIRUBIN / TOTAL PROTEIN / URIC ACID: tissue Plasma
[1] = 2 mg/kg, 72 h, dose level Low, time 3 day
[2] = 2 mg/kg, 120 h, dose level Low, time 5 day
[3] = 20 mg/kg, 72 h, dose level High, time 3 day
[4] = 20 mg/kg, 120 h, dose level High, time 5 day

Compound: CCN1CC(CCN2CCOCC2)C(c2ccccc2)(c2ccccc2)C1=O (configuration not stated) [DOXAPRAM]
- ABSOLUTE BASOPHIL [1]: 0 CELLS/uL
- ABSOLUTE EOSINOPHIL [1]: 0 CELLS/uL
- ABSOLUTE LYMPHOCYTE [1]: 13662.33 CELLS/uL
- ABSOLUTE MONOCYTE [1]: 351.67 CELLS/uL
- ABSOLUTE SEGMENTED NEUTROPHIL [1]: 2319.33 CELLS/uL
- BASOPHIL [1]: 0%
- EOSINOPHIL [1]: 0%
- ERYTHROCYTE COUNT [1]: 5.67 x10E6/uL
- HEMATOCRIT [1]: 35.7%
- HEMOGLOBIN [1]: 14.2 G/DL
- LEUKOCYTE COUNT [1]: 16.33 x10E3/uL
- LYMPHOCYTE [1]: 84%
- MEAN CORPUSCULAR HEMOGLOBIN [1]: 25.1 pg
- MEAN CORPUSCULAR HEMOGLOBIN CONCENTRATION [1]: 39.77 G/DL
- MEAN CORPUSCULAR VOLUME [1]: 63.03 fL
- MONOCYTE [1]: 2%
- NEUTROPHIL [1]: 14%
- NUCLEATED RED BLOOD CELLS [1]: 0 /100WBC
- PLATELET COUNT [1]: 1174 x10E3/uL
- ALANINE AMINOTRANSFERASE [1]: 72.33 u/L
- ALBUMIN [1]: 3.93 G/DL
- ALKALINE PHOSPHATASE [1]: 296.67 u/L
- ASPARTATE AMINOTRANSFERASE [1]: 101 u/L
- BLOOD UREA NITROGEN [1]: 17 mg/dL
- CARBON DIOXIDE [1]: 26.33 mmol/L
- CHLORIDE [1]: 101.33 MEQ/L
- CHOLESTEROL [1]: 83.33 mg/dL
- CREATINE PHOSPHOKINASE [1]: 298.67 u/L
- CREATININE [1]: 0.15 mg/dL
- GLUCOSE [1]: 149 mg/dL
- LACTATE DEHYDROGENASE [1]: 372.67 u/L
- LIPASE [1]: 8 u/L
- PHOSPHORUS [1]: 12.83 mg/dL
- POTASSIUM [1]: 7.17 MEQ/L
- SODIUM [1]: 146.3 MEQ/L
- TOTAL BILIRUBIN [1]: 0.17 mg/dL
- TOTAL PROTEIN [1]: 6.1 G/DL
- URIC ACID [1]: 1.53 mg/dL
- ABSOLUTE BASOPHIL [2]: 0 CELLS/uL
- ABSOLUTE EOSINOPHIL [2]: 0 CELLS/uL
- ABSOLUTE LYMPHOCYTE [2]: 13405 CELLS/uL
- ABSOLUTE MONOCYTE [2]: 468.67 CELLS/uL
- ABSOLUTE SEGMENTED NEUTROPHIL [2]: 2059.67 CELLS/uL
- BASOPHIL [2]: 0%
- EOSINOPHIL [2]: 0%
- ERYTHROCYTE COUNT [2]: 6.04 x10E6/uL
- HEMATOCRIT [2]: 37.2%
- HEMOGLOBIN [2]: 14.8 G/DL
- LEUKOCYTE COUNT [2]: 15.93 x10E3/uL
- LYMPHOCYTE [2]: 84%
- MEAN CORPUSCULAR HEMOGLOBIN [2]: 24.5 pg
- MEAN CORPUSCULAR HEMOGLOBIN CONCENTRATION [2]: 39.8 G/DL
- MEAN CORPUSCULAR VOLUME [2]: 61.53 fL
- MONOCYTE [2]: 3%
- NEUTROPHIL [2]: 13%
- NUCLEATED RED BLOOD CELLS [2]: 0.67 /100WBC
- PLATELET COUNT [2]: 1035 x10E3/uL
- ALANINE AMINOTRANSFERASE [2]: 97.67 u/L
- ALBUMIN [2]: 3.97 G/DL
- ALKALINE PHOSPHATASE [2]: 400.33 u/L
- ASPARTATE AMINOTRANSFERASE [2]: 101.33 u/L
- BLOOD UREA NITROGEN [2]: 15.33 mg/dL
- CARBON DIOXIDE [2]: 26.33 mmol/L
- CHLORIDE [2]: 101.33 MEQ/L
- CHOLESTEROL [2]: 65.33 mg/dL
- CREATINE PHOSPHOKINASE [2]: 230 u/L
- CREATININE [2]: 0.14 mg/dL
- GLUCOSE [2]: 159.33 mg/dL
- LACTATE DEHYDROGENASE [2]: 100.67 u/L
- LIPASE [2]: 8.33 u/L
- PHOSPHORUS [2]: 12.7 mg/dL
- POTASSIUM [2]: 6.47 MEQ/L
- SODIUM [2]: 144.37 MEQ/L
- TOTAL BILIRUBIN [2]: 0.13 mg/dL
- TOTAL PROTEIN [2]: 6.17 G/DL
- URIC ACID [2]: 1.6 mg/dL
- ABSOLUTE BASOPHIL [3]: 0 CELLS/uL
- ABSOLUTE EOSINOPHIL [3]: 173.33 CELLS/uL
- ABSOLUTE LYMPHOCYTE [3]: 15104 CELLS/uL
- ABSOLUTE MONOCYTE [3]: 284 CELLS/uL
- ABSOLUTE SEGMENTED NEUTROPHIL [3]: 1672 CELLS/uL
- BASOPHIL [3]: 0%
- EOSINOPHIL [3]: 1%
- ERYTHROCYTE COUNT [3]: 5.38 x10E6/uL
- HEMATOCRIT [3]: 34.17%
- HEMOGLOBIN [3]: 13.5 G/DL
- LEUKOCYTE COUNT [3]: 17.23 x10E3/uL
- LYMPHOCYTE [3]: 87.67%
- MEAN CORPUSCULAR HEMOGLOBIN [3]: 25.13 pg
- MEAN CORPUSCULAR HEMOGLOBIN CONCENTRATION [3]: 39.53 G/DL
- MEAN CORPUSCULAR VOLUME [3]: 63.6 fL
- MONOCYTE [3]: 1.67%
- NEUTROPHIL [3]: 9.67%
- NUCLEATED RED BLOOD CELLS [3]: 0 /100WBC
- PLATELET COUNT [3]: 1285.33 x10E3/uL
- ALANINE AMINOTRANSFERASE [3]: 51.67 u/L
- ALBUMIN [3]: 4.33 G/DL
- ALKALINE PHOSPHATASE [3]: 402.67 u/L
- ASPARTATE AMINOTRANSFERASE [3]: 102.67 u/L
- BLOOD UREA NITROGEN [3]: 15 mg/dL
- CARBON DIOXIDE [3]: 21.67 mmol/L
- CHLORIDE [3]: 102 MEQ/L
- CHOLESTEROL [3]: 79 mg/dL
- CREATINE PHOSPHOKINASE [3]: 445.33 u/L
- CREATININE [3]: 0.15 mg/dL
- GLUCOSE [3]: 149.33 mg/dL
- LACTATE DEHYDROGENASE [3]: 669.33 u/L
- LIPASE [3]: 9 u/L
- PHOSPHORUS [3]: 13.03 mg/dL
- POTASSIUM [3]: 6.9 MEQ/L
- SODIUM [3]: 143.67 MEQ/L
- TOTAL BILIRUBIN [3]: 0.17 mg/dL
- TOTAL PROTEIN [3]: 5.93 G/DL
- URIC ACID [3]: 1.7 mg/dL
- ABSOLUTE BASOPHIL [4]: 0 CELLS/uL
- ABSOLUTE EOSINOPHIL [4]: 118.67 CELLS/uL
- ABSOLUTE LYMPHOCYTE [4]: 15901.33 CELLS/uL
- ABSOLUTE MONOCYTE [4]: 415.33 CELLS/uL
- ABSOLUTE SEGMENTED NEUTROPHIL [4]: 1364.67 CELLS/uL
- BASOPHIL [4]: 0%
- EOSINOPHIL [4]: 0.67%
- ERYTHROCYTE COUNT [4]: 5.51 x10E6/uL
- HEMATOCRIT [4]: 34.63%
- HEMOGLOBIN [4]: 13.57 G/DL
- LEUKOCYTE COUNT [4]: 17.8 x10E3/uL
- LYMPHOCYTE [4]: 89.33%
- MEAN CORPUSCULAR HEMOGLOBIN [4]: 24.63 pg
- MEAN CORPUSCULAR HEMOGLOBIN CONCENTRATION [4]: 39.17 G/DL
- MEAN CORPUSCULAR VOLUME [4]: 62.8 fL
- MONOCYTE [4]: 2.33%
- NEUTROPHIL [4]: 7.67%
- NUCLEATED RED BLOOD CELLS [4]: 0 /100WBC
- PLATELET COUNT [4]: 1309.33 x10E3/uL
- ALANINE AMINOTRANSFERASE [4]: 57 u/L
- ALBUMIN [4]: 4.33 G/DL
- ALKALINE PHOSPHATASE [4]: 365.67 u/L
- ASPARTATE AMINOTRANSFERASE [4]: 95.67 u/L
- BLOOD UREA NITROGEN [4]: 16 mg/dL
- CARBON DIOXIDE [4]: 23.33 mmol/L
- CHLORIDE [4]: 102.67 MEQ/L
- CHOLESTEROL [4]: 66.33 mg/dL
- CREATINE PHOSPHOKINASE [4]: 259 u/L
- CREATININE [4]: 0.18 mg/dL
- GLUCOSE [4]: 166 mg/dL
- LACTATE DEHYDROGENASE [4]: 229 u/L
- LIPASE [4]: 8.33 u/L
- PHOSPHORUS [4]: 13.17 mg/dL
- POTASSIUM [4]: 6.59 MEQ/L
- SODIUM [4]: 144.97 MEQ/L
- TOTAL BILIRUBIN [4]: 0.23 mg/dL
- TOTAL PROTEIN [4]: 5.93 G/DL
- URIC ACID [4]: 2.2 mg/dL
